Assay results: patent publication US10479786B2, “Protein kinase inhibitors” (Princeton Drug Discovery Inc, priority 2016, dated 2019)

Assays:
ABL = molecular target: T1, ABL (Homo sapiens, UniProt P00519); experiment: Off-chip Mobility Shift Assay, kinase inhibition; assay type: biochemical; conditions: recombinant ABL; for inhibition at 0.001 µM: at 1 nM; for inhibition at 0.01 µM: at 10 nM
T1 construct: purchased Carna Biosciences, Inc

ABL(E255K) = molecular target: T2, ABL(E255K) (Homo sapiens, UniProt P00519, E255K); experiment: Off-chip Mobility Shift Assay, kinase inhibition; assay type: biochemical; conditions: recombinant ABL(E255K); for inhibition at 0.001 µM: at 1 nM; for inhibition at 0.01 µM: at 10 nM
T2 construct: purchased Carna Biosciences, Inc
T2 sequence (P00519 whole entry E255K): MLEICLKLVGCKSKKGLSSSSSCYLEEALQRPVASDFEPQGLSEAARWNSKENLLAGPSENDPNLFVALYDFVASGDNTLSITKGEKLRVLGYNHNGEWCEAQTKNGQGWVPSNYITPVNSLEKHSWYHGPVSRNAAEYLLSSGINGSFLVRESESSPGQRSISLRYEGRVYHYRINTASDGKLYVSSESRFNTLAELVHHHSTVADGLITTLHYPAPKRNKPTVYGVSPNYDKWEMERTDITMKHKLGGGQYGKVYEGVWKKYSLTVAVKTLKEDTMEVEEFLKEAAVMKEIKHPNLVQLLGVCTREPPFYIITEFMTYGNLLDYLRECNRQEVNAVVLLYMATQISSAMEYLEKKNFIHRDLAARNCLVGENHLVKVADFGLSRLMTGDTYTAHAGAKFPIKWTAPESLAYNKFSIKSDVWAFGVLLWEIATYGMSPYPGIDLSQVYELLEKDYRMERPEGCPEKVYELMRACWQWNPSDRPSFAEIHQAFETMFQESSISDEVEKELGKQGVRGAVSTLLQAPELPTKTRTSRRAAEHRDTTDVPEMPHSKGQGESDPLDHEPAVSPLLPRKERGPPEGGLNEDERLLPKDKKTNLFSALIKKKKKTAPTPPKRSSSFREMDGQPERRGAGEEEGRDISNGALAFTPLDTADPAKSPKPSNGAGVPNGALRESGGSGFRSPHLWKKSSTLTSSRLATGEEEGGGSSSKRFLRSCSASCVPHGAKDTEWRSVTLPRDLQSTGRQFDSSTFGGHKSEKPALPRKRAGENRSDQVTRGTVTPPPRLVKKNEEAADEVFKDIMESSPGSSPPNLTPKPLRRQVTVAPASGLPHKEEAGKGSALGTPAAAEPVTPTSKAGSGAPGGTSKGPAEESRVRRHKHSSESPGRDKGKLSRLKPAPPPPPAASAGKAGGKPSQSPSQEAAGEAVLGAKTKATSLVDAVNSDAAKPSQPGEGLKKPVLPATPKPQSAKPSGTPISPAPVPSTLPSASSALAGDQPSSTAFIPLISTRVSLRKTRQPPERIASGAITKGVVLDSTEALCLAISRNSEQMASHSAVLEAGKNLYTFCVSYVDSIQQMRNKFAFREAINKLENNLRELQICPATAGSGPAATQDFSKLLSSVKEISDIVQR

ARG = molecular target: T3, ARG (Homo sapiens, UniProt P42684); experiment: Off-chip Mobility Shift Assay, kinase inhibition; assay type: biochemical; conditions: recombinant ARG; for inhibition at 0.01 µM: at 10 nM, read-out: inhibition
T3 construct: purchased Carna Biosciences, Inc
T3 sequence (P42684 whole entry): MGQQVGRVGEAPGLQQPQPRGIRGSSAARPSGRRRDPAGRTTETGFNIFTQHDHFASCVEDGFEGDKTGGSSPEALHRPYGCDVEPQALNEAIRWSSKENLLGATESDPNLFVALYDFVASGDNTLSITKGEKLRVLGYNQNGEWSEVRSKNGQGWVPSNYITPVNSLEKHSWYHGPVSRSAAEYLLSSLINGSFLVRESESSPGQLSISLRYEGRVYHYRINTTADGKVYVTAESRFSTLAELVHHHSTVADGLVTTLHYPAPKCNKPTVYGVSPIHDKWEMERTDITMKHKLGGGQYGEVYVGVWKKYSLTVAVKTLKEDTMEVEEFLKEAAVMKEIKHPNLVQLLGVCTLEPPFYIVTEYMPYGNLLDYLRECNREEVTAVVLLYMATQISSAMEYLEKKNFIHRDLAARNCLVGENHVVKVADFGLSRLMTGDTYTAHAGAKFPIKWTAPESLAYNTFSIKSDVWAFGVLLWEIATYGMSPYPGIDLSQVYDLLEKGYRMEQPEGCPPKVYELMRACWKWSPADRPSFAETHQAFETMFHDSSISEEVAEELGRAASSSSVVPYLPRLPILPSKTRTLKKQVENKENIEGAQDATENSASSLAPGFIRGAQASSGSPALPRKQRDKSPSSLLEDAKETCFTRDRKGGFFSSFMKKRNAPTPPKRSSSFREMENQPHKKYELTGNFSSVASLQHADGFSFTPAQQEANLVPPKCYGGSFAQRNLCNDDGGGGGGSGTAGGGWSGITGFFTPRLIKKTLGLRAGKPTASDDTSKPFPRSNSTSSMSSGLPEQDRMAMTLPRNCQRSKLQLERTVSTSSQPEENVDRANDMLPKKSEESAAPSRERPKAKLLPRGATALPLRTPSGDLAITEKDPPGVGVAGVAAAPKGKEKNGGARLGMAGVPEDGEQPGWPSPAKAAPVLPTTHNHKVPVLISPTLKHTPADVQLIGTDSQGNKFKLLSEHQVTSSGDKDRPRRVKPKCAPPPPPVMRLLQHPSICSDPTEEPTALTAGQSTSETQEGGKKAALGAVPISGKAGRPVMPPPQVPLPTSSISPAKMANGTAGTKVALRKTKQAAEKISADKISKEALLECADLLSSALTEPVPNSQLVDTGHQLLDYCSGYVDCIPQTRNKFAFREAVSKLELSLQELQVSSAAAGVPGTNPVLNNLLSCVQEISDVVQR

DDR2 = molecular target: T4, DDR2 (Homo sapiens, UniProt Q16832); experiment: Off-chip Mobility Shift Assay, kinase inhibition; assay type: biochemical; conditions: recombinant DDR2; for inhibition at 0.01 µM: at 10 nM, read-out: inhibition
T4 construct: purchased Carna Biosciences, Inc
T4 sequence (Q16832 22-855): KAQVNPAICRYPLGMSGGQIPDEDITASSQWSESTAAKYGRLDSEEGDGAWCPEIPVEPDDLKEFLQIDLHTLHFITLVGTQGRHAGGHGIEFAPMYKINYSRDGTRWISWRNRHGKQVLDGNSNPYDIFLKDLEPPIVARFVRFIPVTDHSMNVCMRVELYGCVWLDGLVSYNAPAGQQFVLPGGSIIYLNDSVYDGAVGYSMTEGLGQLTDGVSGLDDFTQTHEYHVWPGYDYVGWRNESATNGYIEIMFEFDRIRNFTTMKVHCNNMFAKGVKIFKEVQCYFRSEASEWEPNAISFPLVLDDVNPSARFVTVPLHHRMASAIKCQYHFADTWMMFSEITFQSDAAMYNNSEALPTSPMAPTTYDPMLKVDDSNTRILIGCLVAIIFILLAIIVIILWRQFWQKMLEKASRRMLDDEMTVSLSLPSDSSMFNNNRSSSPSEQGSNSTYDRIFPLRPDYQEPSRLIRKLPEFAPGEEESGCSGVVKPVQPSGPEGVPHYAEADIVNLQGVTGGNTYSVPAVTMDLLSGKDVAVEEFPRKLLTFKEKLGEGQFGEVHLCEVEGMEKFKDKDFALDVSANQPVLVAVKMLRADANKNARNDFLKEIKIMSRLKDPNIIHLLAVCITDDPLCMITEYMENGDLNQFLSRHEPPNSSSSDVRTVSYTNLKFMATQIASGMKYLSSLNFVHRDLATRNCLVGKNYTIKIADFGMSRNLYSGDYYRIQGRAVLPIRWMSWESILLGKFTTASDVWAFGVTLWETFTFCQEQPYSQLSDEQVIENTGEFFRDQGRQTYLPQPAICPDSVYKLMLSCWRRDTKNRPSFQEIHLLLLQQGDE

FMS = molecular target: T5, FMS (Homo sapiens, UniProt P07333); experiment: Off-chip Mobility Shift Assay, kinase inhibition; assay type: biochemical; conditions: recombinant FMS; for inhibition at 0.01 µM: at 10 nM; for inhibition at 0.001 µM: at 1 nM
T5 construct: purchased Carna Biosciences, Inc
T5 sequence (P07333 20-972): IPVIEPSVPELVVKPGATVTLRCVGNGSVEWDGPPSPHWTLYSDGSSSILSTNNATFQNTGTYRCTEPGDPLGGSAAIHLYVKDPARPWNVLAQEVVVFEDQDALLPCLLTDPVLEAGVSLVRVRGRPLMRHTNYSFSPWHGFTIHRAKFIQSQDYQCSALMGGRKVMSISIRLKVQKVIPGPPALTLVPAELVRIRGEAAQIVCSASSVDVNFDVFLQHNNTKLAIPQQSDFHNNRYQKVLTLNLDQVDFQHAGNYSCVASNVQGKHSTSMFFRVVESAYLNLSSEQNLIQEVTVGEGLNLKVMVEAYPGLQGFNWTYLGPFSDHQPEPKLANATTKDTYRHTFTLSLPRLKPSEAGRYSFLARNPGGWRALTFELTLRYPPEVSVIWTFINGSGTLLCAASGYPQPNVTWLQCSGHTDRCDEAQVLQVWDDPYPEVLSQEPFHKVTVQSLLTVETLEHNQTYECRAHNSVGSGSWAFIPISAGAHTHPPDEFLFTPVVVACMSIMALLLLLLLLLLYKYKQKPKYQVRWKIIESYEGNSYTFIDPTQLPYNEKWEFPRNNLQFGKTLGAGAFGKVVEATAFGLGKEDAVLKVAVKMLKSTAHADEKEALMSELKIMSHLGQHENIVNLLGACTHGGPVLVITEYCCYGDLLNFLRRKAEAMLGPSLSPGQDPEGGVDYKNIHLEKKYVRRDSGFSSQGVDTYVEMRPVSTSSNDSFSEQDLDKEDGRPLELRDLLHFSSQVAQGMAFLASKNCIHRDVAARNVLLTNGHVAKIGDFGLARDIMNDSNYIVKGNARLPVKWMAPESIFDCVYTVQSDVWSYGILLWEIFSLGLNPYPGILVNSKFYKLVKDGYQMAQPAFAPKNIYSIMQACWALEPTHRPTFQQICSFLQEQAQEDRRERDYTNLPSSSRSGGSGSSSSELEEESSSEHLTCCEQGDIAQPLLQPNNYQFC

LCK = molecular target: T6, LCK (Homo sapiens, UniProt P06239); experiment: Off-chip Mobility Shift Assay, kinase inhibition; assay type: biochemical; conditions: recombinant LCK; for inhibition at 0.001 µM: at 1 nM; for inhibition at 0.01 µM: at 10 nM
T6 construct: purchased Carna Biosciences, Inc
T6 sequence (P06239 whole entry): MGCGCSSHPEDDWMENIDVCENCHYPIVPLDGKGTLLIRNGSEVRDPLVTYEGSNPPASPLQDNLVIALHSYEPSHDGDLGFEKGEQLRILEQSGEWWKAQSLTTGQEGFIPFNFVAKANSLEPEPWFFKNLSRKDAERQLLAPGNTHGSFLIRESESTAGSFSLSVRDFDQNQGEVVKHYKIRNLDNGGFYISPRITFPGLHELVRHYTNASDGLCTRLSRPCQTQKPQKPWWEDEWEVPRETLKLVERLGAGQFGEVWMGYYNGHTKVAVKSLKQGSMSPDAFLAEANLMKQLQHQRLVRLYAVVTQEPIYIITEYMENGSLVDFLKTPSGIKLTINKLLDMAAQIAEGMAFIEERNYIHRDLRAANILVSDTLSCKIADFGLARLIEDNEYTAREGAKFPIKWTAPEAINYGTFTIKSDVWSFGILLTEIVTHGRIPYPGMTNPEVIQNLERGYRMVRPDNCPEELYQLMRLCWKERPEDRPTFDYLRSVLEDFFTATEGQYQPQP

SRC = molecular target: T7, SRC (Homo sapiens, UniProt P12931); experiment: Off-chip Mobility Shift Assay, kinase inhibition; assay type: biochemical; conditions: recombinant SRC; for inhibition at 0.001 µM: at 1 nM; for inhibition at 0.01 µM: at 10 nM
T7 construct: purchased Carna Biosciences, Inc
T7 sequence (P12931 whole entry): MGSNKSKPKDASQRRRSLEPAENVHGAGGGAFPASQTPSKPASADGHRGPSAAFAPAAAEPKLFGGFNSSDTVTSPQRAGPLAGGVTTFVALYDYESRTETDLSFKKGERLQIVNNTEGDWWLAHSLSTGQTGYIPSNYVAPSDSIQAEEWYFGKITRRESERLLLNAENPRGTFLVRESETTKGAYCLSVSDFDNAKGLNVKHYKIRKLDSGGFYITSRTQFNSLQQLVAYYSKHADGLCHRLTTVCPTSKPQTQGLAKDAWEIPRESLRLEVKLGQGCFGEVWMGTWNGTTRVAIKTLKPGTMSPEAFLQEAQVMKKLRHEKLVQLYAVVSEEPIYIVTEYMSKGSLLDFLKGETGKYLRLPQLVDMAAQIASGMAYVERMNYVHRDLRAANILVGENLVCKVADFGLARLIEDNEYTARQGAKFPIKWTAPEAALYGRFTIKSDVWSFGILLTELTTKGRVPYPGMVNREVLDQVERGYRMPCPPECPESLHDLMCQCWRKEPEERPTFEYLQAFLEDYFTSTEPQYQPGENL

YES = molecular target: T8, YES (Homo sapiens, UniProt P07947); experiment: Off-chip Mobility Shift Assay, kinase inhibition; assay type: biochemical; conditions: recombinant YES; for inhibition at 0.001 µM: at 1 nM; for inhibition at 0.01 µM: at 10 nM
T8 construct: purchased Carna Biosciences, Inc
T8 sequence (P07947 whole entry): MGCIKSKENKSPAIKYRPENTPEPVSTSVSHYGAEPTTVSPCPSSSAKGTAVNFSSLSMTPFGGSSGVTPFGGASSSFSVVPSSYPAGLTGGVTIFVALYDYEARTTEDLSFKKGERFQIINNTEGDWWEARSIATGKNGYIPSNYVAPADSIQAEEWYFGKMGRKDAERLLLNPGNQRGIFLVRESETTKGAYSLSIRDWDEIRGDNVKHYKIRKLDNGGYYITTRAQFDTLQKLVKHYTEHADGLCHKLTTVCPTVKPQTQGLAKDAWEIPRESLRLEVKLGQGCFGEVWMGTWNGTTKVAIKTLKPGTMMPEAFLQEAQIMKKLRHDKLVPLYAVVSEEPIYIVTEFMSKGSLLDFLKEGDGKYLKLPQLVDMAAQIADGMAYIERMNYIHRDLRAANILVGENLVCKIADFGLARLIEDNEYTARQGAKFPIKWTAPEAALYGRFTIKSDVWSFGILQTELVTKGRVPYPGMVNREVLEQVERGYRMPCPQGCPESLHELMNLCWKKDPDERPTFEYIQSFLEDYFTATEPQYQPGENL

TEC = molecular target: T9, TEC (Homo sapiens, UniProt P42680); experiment: Off-chip Mobility Shift Assay, kinase inhibition; assay type: biochemical; conditions: at 1 nM; recombinant TEC
T9 construct: purchased Carna Biosciences, Inc
T9 sequence (P42680 1-631): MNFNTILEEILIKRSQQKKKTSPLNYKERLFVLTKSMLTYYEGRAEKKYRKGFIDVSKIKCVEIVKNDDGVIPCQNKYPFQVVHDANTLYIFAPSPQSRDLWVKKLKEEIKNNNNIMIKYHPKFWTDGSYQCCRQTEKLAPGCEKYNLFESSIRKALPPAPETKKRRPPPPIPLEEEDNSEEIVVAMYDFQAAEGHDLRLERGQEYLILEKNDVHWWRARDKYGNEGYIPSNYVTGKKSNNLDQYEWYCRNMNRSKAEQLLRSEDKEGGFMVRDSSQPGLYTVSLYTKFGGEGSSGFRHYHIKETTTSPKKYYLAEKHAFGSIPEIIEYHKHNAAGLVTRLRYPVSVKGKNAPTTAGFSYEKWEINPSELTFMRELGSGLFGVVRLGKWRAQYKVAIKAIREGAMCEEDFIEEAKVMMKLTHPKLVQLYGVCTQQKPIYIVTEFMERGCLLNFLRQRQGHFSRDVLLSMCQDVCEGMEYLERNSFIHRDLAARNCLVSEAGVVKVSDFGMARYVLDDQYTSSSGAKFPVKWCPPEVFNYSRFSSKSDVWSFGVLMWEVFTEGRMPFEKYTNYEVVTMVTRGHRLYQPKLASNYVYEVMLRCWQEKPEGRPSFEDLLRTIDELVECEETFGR

[1] = Metabolic stability in human liver microsomes; assay type: in vitro ADME; conditions: for In vitro t1/2: 1 μM, human liver microsomes 0.5 mg/mL, NADPH and UDPGA, 37° C.; for metabolic stability compared to dasatinib: human liver microsomes
Protocol: FIG. 1. Metabolic stability of compounds in human liver microsomal incubations. […] Concentrations at specified times were determined by LC-MS/MS.
The incubation reactions at various time points were quenched by adding 2× volumes of acetonitrile containing 100 nM reserpine. The quenched incubation samples were centrifuged at 4000 RPM for 10 min, and the supernatants injected for LC/MS/MS analysis. LC/MS/MS analysis was carried out on a AB Sciex 4000 Q Trap LC/MS/MS system coupled with Shimadzu Prominence UFLCXR 20 series (including a CBM-20A controller, two LC-20ADXR solvent delivery units, SIL-20AC HT autosampler, CTO-20A column oven, and a SPD-20A UV detector).

T1 sequence (P00519 whole entry): as the sequence (P00519 whole entry E255K) above, with K255E counted along it

Row | inhibition at 0.001 µM (ABL) | inhibition at 0.01 µM (ABL) | inhibition at 0.001 µM (ABL(E255K)) | inhibition at 0.01 µM (ABL(E255K)) | inhibition at 0.01 µM (ARG) | inhibition at 0.01 µM (DDR2) | inhibition at 0.01 µM (FMS) | inhibition at 0.001 µM (LCK) | inhibition at 0.01 µM (LCK) | inhibition at 0.001 µM (SRC) | inhibition at 0.01 µM (SRC) | inhibition at 0.001 µM (YES) | inhibition at 0.01 µM (YES) | inhibition at 0.001 µM (TEC) | In vitro t1/2 [1] | metabolic stability compared to dasatinib [1] | inhibition at 0.001 µM (FMS) | inhibition at 0.001 µM (ARG; at 1 nM) | inhibition at 0.001 µM (DDR2; at 1 nM) | Compound
1 | > 50% | > 50% | > 50% | > 50% | > 50% | > 50% | > 50% | > 50% | > 50% | > 50% | > 50% | > 50% | > 50% | > 50% |  |  |  |  |  | Cc1nc(Nc2ncc(C(=O)Nc3c(C)cccc3Cl)s2)cc(N2CCC(O)CC2)n1 [Compound IX, N-(2-chloro-6-methylphenyl)-2-[[2-methyl-6-(4-hydroxypiperidin-1-yl)pyrimidin-4-yl]amino]thiazole-5-carboxamide]
2 | > 50% | > 50% | > 50% | > 50% | > 50% | > 50% | > 50% | > 50% | > 50% | > 50% | > 50% | > 50% | > 50% | > 50% |  | significantly greater stability |  |  |  | Cc1nc(Nc2ncc(C(=O)Nc3c(C)cccc3Cl)s2)cc(N2CC[C@@H](N)C2)n1 [Compound XIII, N-(2-chloro-6-methylphenyl)-2-[[2-methyl-6-((R)-3-aminopyrrolidin-1-yl)pyrimidin-4-yl]amino]thiazole-5-carboxamide]
3 | > 50% | > 50% | > 50% | > 50% | > 50% | > 50% | > 50% | > 50% | > 50% | > 50% | > 50% | > 50% | > 50% | > 50% |  |  | > 50% |  |  | [2H]c1cc(C)c(NC(=O)c2cnc(Nc3cc(N4CCC(O)CC4)nc(C)n3)s2)c(Cl)c1 [Compound II, N-(2-chloro-4-deuterio-6-methyl-phenyl)-2-[[6-(4-hydroxy-1-piperidyl)-2-methyl-pyrimidin-4-yl]amino]thiazole-5-carboxamide]

Further lines, the molecule ahead of its results:

Row | Compound | inhibition at 0.001 µM (ABL) | inhibition at 0.01 µM (ABL) | inhibition at 0.001 µM (ABL(E255K)) | inhibition at 0.01 µM (ABL(E255K)) | inhibition at 0.01 µM (ARG) | inhibition at 0.01 µM (DDR2) | inhibition at 0.01 µM (FMS) | inhibition at 0.001 µM (LCK) | inhibition at 0.01 µM (LCK) | inhibition at 0.001 µM (SRC) | inhibition at 0.01 µM (SRC) | inhibition at 0.001 µM (YES) | inhibition at 0.01 µM (YES) | inhibition at 0.001 µM (TEC) | In vitro t1/2 [1] | metabolic stability compared to dasatinib [1] | inhibition at 0.001 µM (FMS) | inhibition at 0.001 µM (ARG; at 1 nM) | inhibition at 0.001 µM (DDR2; at 1 nM)
4 | [2H]c1cc(C)c(NC(=O)c2cnc(Nc3cc(N4CC[C@@H](O)C4)nc(C)n3)s2)c(Cl)c1 [Compound V, N-(2-chloro-4-deutero-6-methylphenyl)-2-[[2-methyl-6-((R)-3-hydroxypyrrolidin-1-yl)pyrimidin-4-yl]amino]thiazole-5-carboxamide] | > 50% | > 50% | > 50% | > 50% | > 50% | > 50% | > 50% | > 50% | > 50% | > 50% | > 50% | > 50% | > 50% | > 50% | 1.12 h | significantly greater stability |  |  | 
5 | Cc1nc(Nc2ncc(C(=O)Nc3c(C)cccc3Cl)s2)cc(N2CCCCC2)n1 [Compound VIII, N-(2-chloro-6-methylphenyl)-2-[[2-methyl-6-(piperidin-1-yl)pyrimidin-4-yl]amino]thiazole-5-carboxamide] | > 50% | > 50% | > 50% | > 50% | > 50% | > 50% | > 50% | > 50% | > 50% | > 50% | > 50% | > 50% | > 50% | > 50% |  | significantly greater stability |  |  | 
6 | Cc1nc(Nc2ncc(C(=O)Nc3c(C)cccc3Cl)s2)cc(N2CC[C@H](O)C2)n1 [Compound X, N-(2-chloro-6-methylphenyl)-2-[[2-methyl-6-((S)-3-hydroxypyrrolidin-1-yl)pyrimidin-4-yl]amino]thiazole-5-carboxamide] | > 50% | > 50% | > 50% | > 50% | > 50% | > 50% | > 50% | > 50% | > 50% | > 50% | > 50% | > 50% | > 50% | > 50% | 1.45 h | significantly greater stability |  |  | 
7 | [2H]c1cc(C)c(NC(=O)c2cnc(Nc3cc(N4CCCCC4)nc(C)n3)s2)c(Cl)c1 [Compound I, N-(2-chloro-4-deuterio-6-methyl-phenyl)-2-[[2-methyl-6-(1-piperidyl)pyrimidin-4-yl]amino]thiazole-5-carboxamide] | > 50% | > 50% | > 50% | > 50% | > 50% | > 50% | > 50% | > 50% | > 50% | > 50% | > 50% | > 50% | > 50% |  |  | significantly greater stability | > 50% | > 50% | > 50%
